What was measured:
[1] = tested on: A431 cells (human epidermoid carcinoma); assay: In vitro tumor cell proliferation assay (Cell Titer-Glo luminescent cell viability), A431; type: cell-based; conditions: A-431, 72 h, 72 hours of drug exposure, ATP luminescence readout, read-out: IC50, anti-proliferative activity (inhibition of cell proliferation)
In short: (§1)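 IC50 values reflect ATP-based luminescence (CellTiter-Glo) after 72 h compound exposure at 37°C. Both lines, A431 and BT474, were plated in RPMI with 10% FBS and received serial dilutions ranging from 100 μM to 64 pM final at 0.1% DMSO.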

[2] = tested on: BT474 (human breast carcinoma); assay: In vitro tumor cell proliferation assay (Cell Titer-Glo luminescent cell viability), BT474; type: cell-based; conditions: BT-474, 72 h, BT474 cells, 72 hours of drug exposure, ATP luminescence readout, read-out: IC50, anti-proliferative activity (inhibition of cell proliferation)
In short: as §1

Structure (SMILES)	IC50 [1] [µM]	IC50 [2] [nM]
CN1CCN(CCCn2ncc3c2CCc2c-3sc3ncnc(Nc4ccc(OCc5cccc(F)c5)c(Cl)c4)c23)CC1 [Example 269, N-{3-chloro-4-[(3-fluorobenzyl)oxy]phenyl}-3-[3-(4-methylpiperazin-1-yl)propyl]-4,5-dihydro-3H-pyrimido[5′,4′:4,5]thieno[2,3-e]indazol-6-amine]	≤ 5	≤ 1000
Fc1cccc(COc2ccc(Nc3ncnc4sc5c(c34)CCc3c-5cnn3CCCN3CCOCC3)cc2Cl)c1 [Example 271, N-{3-chloro-4-[(3-fluorobenzyl)oxy]phenyl}-3-(3-morpholin-4-ylpropyl)-4,5-dihydro-3H-pyrimido[5′,4′:4,5]thieno[2,3-e]indazol-6-amine]	≤ 50	≤ 1000
Fc1cccc(COc2ccc(Nc3ncnc4sc5c(c34)CCc3c-5cnn3CCCN3CCCC3)cc2Cl)c1 [Example 272]	≤ 5	≤ 1000
Fc1cccc(COc2ccc(Nc3ncnc4sc5c(c34)CCc3c-5cnn3CCCN3CCCCC3)cc2Cl)c1 [Example 273]	≤ 5	≤ 1000
OCCn1cc2c(n1)CCc1c-2sc2ncnc(Nc3ccc4c(cnn4Cc4cccc(F)c4)c3)c12 [Example 275, 2-(6-{[1-(3-fluorobenzyl)-1H-indazol-5-yl]amino}-4,5-dihydro-2H-pyrimido[5′,4′:4,5]thieno[2,3-e]indazol-2-yl)ethanol]	≤ 5	≤ 1000
CS(=O)(=O)OCCn1cc2c(n1)CCc1c-2sc2ncnc(Nc3ccc4c(cnn4Cc4cccc(F)c4)c3)c12 [Example 276, 2-(6-{[1-(3-fluorobenzyl)-1H-indazol-5-yl]amino}-4,5-dihydro-2H-pyrimido[5′,4′:4,5]thieno[2,3-e]indazol-2-yl)ethyl methanesulfonate]	≤ 5	≤ 1000
CN1CCN(CCn2cc3c(n2)CCc2c-3sc3ncnc(Nc4ccc5c(cnn5Cc5cccc(F)c5)c4)c23)CC1 [Example 277]	≤ 5	≤ 1000
Fc1cccc(Cn2ncc3cc(Nc4ncnc5sc6c(c45)CCc4nn(CCN5CCOCC5)cc4-6)ccc32)c1 [Example 278, N-[1-(3-fluorobenzyl)-1H-indazol-5-yl]-2-(2-morpholin-4-ylethyl)-4,5-dihydro-2H-pyrimido[5′,4′:4,5]thieno[2,3-e]indazol-6-amine]	≤ 5	≤ 1000
Fc1cccc(Cn2ncc3cc(Nc4ncnc5sc6c(c45)CCc4nn(CCn5ccnc5)cc4-6)ccc32)c1 [Example 279, N-[1-(3-fluorobenzyl)-1H-indazol-5-yl]-2-[2-(1H-imidazol-1-yl)ethyl]-4,5-dihydro-2H-pyrimido[5′,4′:4,5]thieno[2,3-e]indazol-6-amine]	≤ 5	≤ 1000
OCCNCCn1cc2c(n1)CCc1c-2sc2ncnc(Nc3ccc4c(cnn4Cc4cccc(F)c4)c3)c12 [Example 281, 2-{[2-(6-{[1-(3-fluorobenzyl)-1H-indazol-5-yl]amino}-4,5-dihydro-2H-pyrimido[5′,4′:4,5]thieno[2,3-e]indazol-2-yl)ethyl]amino}ethanol]	≤ 5	≤ 1000
CN(C)C1CCN(CCn2cc3c(n2)CCc2c-3sc3ncnc(Nc4ccc5c(cnn5Cc5cccc(F)c5)c4)c23)C1 (centres unmarked) [Example 282, 2-{2-[3-(dimethylamino)pyrrolidin-1-yl]ethyl}-N-[1-(3-fluorobenzyl)-1H-indazol-5-yl]-4,5-dihydro-2H-pyrimido[5′,4′:4,5]thieno[2,3-e]indazol-6-amine]	≤ 5	≤ 1000
CCN1CCN(CCn2cc3c(n2)CCc2c-3sc3ncnc(Nc4ccc5c(cnn5Cc5cccc(F)c5)c4)c23)CC1 [Example 283, 2-[2-(4-ethylpiperazin-1-yl)ethyl]-N-[1-(3-fluorobenzyl)-1H-indazol-5-yl]-4,5-dihydro-2H-pyrimido[5′,4′:4,5]thieno[2,3-e]indazol-6-amine]	≤ 5	≤ 1000
Fc1cccc(Cn2ncc3cc(Nc4ncnc5sc6c(c45)CCc4nn(CCN5CCNCC5)cc4-6)ccc32)c1 [Example 284, N-[1-(3-fluorobenzyl)-1H-indazol-5-yl]-2-(2-piperazin-1-ylethyl)-4,5-dihydro-2H-pyrimido[5′,4′:4,5]thieno[2,3-e]indazol-6-amine]	≤ 5	≤ 1000
OC1CCN(CCn2cc3c(n2)CCc2c-3sc3ncnc(Nc4ccc5c(cnn5Cc5cccc(F)c5)c4)c23)C1 (centres unmarked) [Example 286, 1-[2-(6-{[1-(3-fluorobenzyl)-1H-indazol-5-yl]amino}-4,5-dihydro-2H-pyrimido[5′,4′:4,5]thieno[2,3-e]indazol-2-yl)ethyl]pyrrolidin-3-ol]	≤ 5	≤ 1000
Fc1cccc(Cn2ncc3cc(Nc4ncnc5sc6c(c45)CCc4n[nH]cc4-6)ccc32)c1 [Example 288, N-[1-(3-fluorobenzyl)-1H-indazol-5-yl]-4,5-dihydro-2H-pyrimido[5′,4′:4,5]thieno[2,3-e]indazol-6-amine]	≤ 5	≤ 1000

Other lines, results leading:

IC50 [1] [µM]	IC50 [2] [nM]	Structure (SMILES)
≤ 50	≤ 1000	COCCN(C)CCCn1ncc2c1CCc1c-2sc2ncnc(Nc3ccc(OCc4cccc(F)c4)c(Cl)c3)c12 [Example 270, N-{3-chloro-4-[(3-fluorobenzyl)oxy]phenyl}-3-{3-[(2-methoxyethyl)(methyl)amino]propyl}-4,5-dihydro-3H-pyrimido[5′,4′:4,5]thieno[2,3-e]indazol-6-amine]
≤ 5	≤ 1000	COCCNCCn1cc2c(n1)CCc1c-2sc2ncnc(Nc3ccc4c(cnn4Cc4cccc(F)c4)c3)c12 [Example 280, N-[1-(3-fluorobenzyl)-1H-indazol-5-yl]-2-{2-[(2-methoxyethyl)amino]ethyl}-4,5-dihydro-2H-pyrimido[5′,4′:4,5]thieno[2,3-e]indazol-6-amine]
≤ 5	≤ 1000	COCCN(CCOC)CCn1cc2c(n1)CCc1c-2sc2ncnc(Nc3ccc4c(cnn4Cc4cccc(F)c4)c3)c12 [Example 285, 2-{2-[bis(2-methoxyethyl)amino]ethyl}-N-[1-(3-fluorobenzyl)-1H-indazol-5-yl]-4,5-dihydro-2H-pyrimido[5′,4′:4,5]thieno[2,3-e]indazol-6-amine]
≤ 5	≤ 1000	OCCn1ncc2c1CCc1c-2sc2ncnc(Nc3ccc4c(cnn4Cc4cccc(F)c4)c3)c12 [Example 289, 2-(6-{[1-(3-fluorobenzyl)-1H-indazol-5-yl]amino}-4,5-dihydro-3H-pyrimido[5′,4′:4,5]thieno[2,3-e]indazol-3-yl)ethanol]
≤ 5	≤ 1000	CS(=O)(=O)OCCn1ncc2c1CCc1c-2sc2ncnc(Nc3ccc4c(cnn4Cc4cccc(F)c4)c3)c12 [Example 290, 2-(6-{[1-(3-fluorobenzyl)-1H-indazol-5-yl]amino}-4,5-dihydro-3H-pyrimido[5′,4′:4,5]thieno[2,3-e]indazol-3-yl)ethyl methanesulfonate]
≤ 5	≤ 1000	Fc1cccc(Cn2ncc3cc(Nc4ncnc5sc6c(c45)CCc4c-6cnn4CCn4ccnc4)ccc32)c1 [Example 291, N-[1-(3-fluorobenzyl)-1H-indazol-5-yl]-3-[2-(1H-imidazol-1-yl)ethyl]-4,5-dihydro-3H-pyrimido[5′,4′:4,5]thieno[2,3-e]indazol-6-amine]
≤ 5	≤ 1000	COCCN(CCOC)CCn1ncc2c1CCc1c-2sc2ncnc(Nc3ccc4c(cnn4Cc4cccc(F)c4)c3)c12 [Example 292, 3-{2-[bis(2-methoxyethyl)amino]ethyl}-N-[1-(3-fluorobenzyl)-1H-indazol-5-yl]-4,5-dihydro-3H-pyrimido[5′,4′:4,5]thieno[2,3-e]indazol-6-amine]
≤ 50	≤ 1000	CN(C)C1CCN(CCn2ncc3c2CCc2c-3sc3ncnc(Nc4ccc5c(cnn5Cc5cccc(F)c5)c4)c23)C1 (centres unmarked) [Example 293, 3-{2-[3-(dimethylamino)pyrrolidin-1-yl]ethyl}-N-[1-(3-fluorobenzyl)-1H-indazol-5-yl]-4,5-dihydro-3H-pyrimido[5′,4′:4,5]thieno[2,3-e]indazol-6-amine]
≤ 50	≤ 1000	CCN1CCN(CCn2ncc3c2CCc2c-3sc3ncnc(Nc4ccc5c(cnn5Cc5cccc(F)c5)c4)c23)CC1 [Example 294, 3-[2-(4-ethylpiperazin-1-yl)ethyl]-N-[1-(3-fluorobenzyl)-1H-indazol-5-yl]-4,5-dihydro-3H-pyrimido[5′,4′:4,5]thieno[2,3-e]indazol-6-amine]
≤ 5	≤ 1000	CN1CCN(CCn2ncc3c2CCc2c-3sc3ncnc(Nc4ccc5c(cnn5Cc5cccc(F)c5)c4)c23)CC1 [Example 295, 3-[2-(4-methylpiperazin-1-yl)ethyl]-N-[1-(3-fluorobenzyl)-1H-indazol-5-yl]-4,5-dihydro-3H-pyrimido[5′,4′:4,5]thieno[2,3-e]indazol-6-amine]
≤ 5	≤ 1000	Fc1cccc(Cn2ncc3cc(Nc4ncnc5sc6c(c45)CCc4c-6cnn4CCN4CCOCC4)ccc32)c1 [Example 296, N-[1-(3-fluorobenzyl)-1H-indazol-5-yl]-3-(2-morpholin-4-ylethyl)-4,5-dihydro-3H-pyrimido[5′,4′:4,5]thieno[2,3-e]indazol-6-amine]
≤ 5	≤ 1000	COCCNCCn1ncc2c1CCc1c-2sc2ncnc(Nc3ccc4c(cnn4Cc4cccc(F)c4)c3)c12 [Example 297, N-[1-(3-fluorobenzyl)-1H-indazol-5-yl]-3-{2-[(2-methoxyethyl)amino]ethyl}-4,5-dihydro-3H-pyrimido[5′,4′:4,5]thieno[2,3-e]indazol-6-amine]
≤ 5	≤ 1000	Fc1cccc(Cn2ncc3cc(Nc4ncnc5sc6c(c45)CCc4c-6cnn4CCN4CCNCC4)ccc32)c1 [Example 298, N-[1-(3-fluorobenzyl)-1H-indazol-5-yl]-3-(2-piperazin-1-ylethyl)-4,5-dihydro-3H-pyrimido[5′,4′:4,5]thieno[2,3-e]indazol-6-amine]

— patent publication US8207172B2 (Bayer Intellectual Property GmbH, priority 2004, dated 2012)
